Data set [1] has as its system human epidermoid squamous cancer cell A431. As to conditions: from WO 2007/082434; in words; cited from earlier work.
Data set [2] relates to human breast cancer cell BT-474. As to conditions: from WO 2007/082434; in words; cited from earlier work.
Data set [3] concerns human epidermoid squamous cancer cell A431. Particulars: from WO 2007/082434; in words; cited from earlier work. The source holds these as a separate data set.
The target in data set [4] is Erb-B2 kinase (Homo sapiens, UniProt P04626). Particulars: in vitro; from WO 2007/082434; in words; cited from earlier work.
A short description of data set [5]: Thermal stability test (storage at 60° C.). Particulars: p-Toluenesulfonate; for thermal stability: 60° C., one month, in words; for Purity (%): stored at 60° C. Format: physicochemical. The source says:
The purity of Form A was detected at 0, 10 and 30 days, which was based to deduce the thermal stability of Form A. The thermal stability of Form B and Form C were also deduced by this method.

Data set [6] can be described thus: Light stability test (illumination 4500 lx±500 lx). The data set is classed as physicochemical. As to conditions: p-Toluenesulfonate; for light stability: 4500 lx±500 lx, one month, in words; for Purity (%): illumination 4500 lx±500 lx. From the text:
The purity of Form A was detected at 0, 10 and 30 days, which was based to deduce to the light stability of Form A. The light stability of Form B and Form C were also deduced by this method.

Data set [7] can be described thus: Hygroscopicity test (high moisture environment of 92.5%). Format: physicochemical. Particulars: p-Toluenesulfonate; for stability under the environment of high moisture: 92.5% moisture, one month, in words; for Purity (%): high moisture environment of 92.5%. The source says:
The purity of Form A was detected at 0, 10 and 30 days, which was based to deduce the hygroscopicity of Form A. The hygroscopicities of Form B and Form C were also deduced by this method.

Data set [8] deals with human epidermatoid squamous cancer A431. Put plainly: Tumor-inhibitory effect on A431 transplanted to nude mouse. The data set is classed as in vivo, BALB/cA nude mouse. Particulars: for Weight of animals (g) (without tumor) / Tumor inhibition rate % / Weight of tumors (g) x ± SD: 13 days; for Tumor inhibition rate %: by tumor weight; for Weight of tumors (g) x ± SD: killed 23 days after inoculation. How it is done:
A well-developed solid tumor A431 was selected and cut into several uniform bits of a size of 2-3 mm under sterile conditions, with one bit being inoculated subcutaneously to the right armpit of each of the BALB/cA nude mice using trocar. 7 days after inoculation, the mice were grouped randomly and were intragastrically administrated through mouth for 13 days continuously. The long axis (a) and the short axis (b) of the tumors were measured with a vernier caliper every 4 days. According to the formula V=ab^2/2, the tumor volume (mm^3) could be calculated. The tested animals were neck-off killed 23 days after the inoculation, and anatomized to obtain the tumors. The tumors were weighed, and the tumor inhibition rate was calculated.

Data set [9] relates to human ovarian cancer SKOV-3. In words: Tumor-inhibitory effect on SKOV-3 transplanted to nude mouse. The data set is classed as in vivo, BALB/cA nude mouse. How it is done:
A tumor SKOV-3 in vigorous growth period was selected and cut into several uniform bits of a size of about 1.5 mm^3, which was inoculated subcutaneously to the right armpit of the BALB/cA nude mice using trocar under sterile conditions. The diameters of the transplanted tumors of nude mice were measured with a vernier caliper. The animals were grouped randomly when the tumors grew to a size of 80-100 mm^3. The tested animal group were intragastrically administrated through mouth as mentioned above once a day for 3 weeks continuously. The positive control drug MMC (Mitomycin) was intravenously administered once on the first day with a dose of 5 mg/kg. The negative control group were administered with 0.5% CMC-Na (Carboxymethyl Cellulose Sodium) with a dose of 0.2 mL/per mouse. The long axis (a) and the short axis (b) of the tumors were measured twice every week and the nude mice were weighed at the same time. According to the formula V=ab^2/2, the tumor volume (mm^3) could be calculated, based on which the relative tumor volume (RTV) was calculated (Calculation Formula: RTV=Vt/V0, wherein V0 represents the tumor volume measured at the grouping time of administration, and Vt represents the tumor volume measured each time). The relative tumor proliferation rate T/C (%) was chosen as the index to evaluate the anti-tumor activity, which can be calculated according to the following formula: T/C (%)=(TRTV/CRTV)×100
TRTV: RTV of the treated group; CRTV: RTV of the negative control group
V0 represents the tumor volume before the administration, and V21 represents the tumor volume after 3 weeks of continuous administration.
According to the experimental method mentioned above, the tumor-bearing nude mice, into which the human ovarian cancer SKOV-3, the human lung cancer Calu-3, and the human lung cancer A549 were transplanted respectively, were intragastrically administrated with Form B (100 mg/kg) of the present invention through mouth twice a day for 3 weeks continuously.
According to the experimental method mentioned above, the tumor-bearing nude mice, into which the human ovarian cancer SKQV-3, the human lung cancer Calu-3, and the human lung cancer A549 were transplanted respectively, were intragastrically administrated with Form C (100 mg/kg) of the present invention through mouth twice a day for 3 weeks continuously.

The nature of data set [10]: Toxicity test of long-term administration. The data set is classed as in vivo. Particulars: SD rats, ig, 20, 50, 100, 500 or 800 mg/(kg·day), four weeks. How it is done:
80 healthy SD rats, male and weighed 200˜250 g, were grouped into 16 groups randomly, and were each intragastrically administered with Form A, B or C of the p-toluenesulfonate of the compound of formula (I) or a blank solvent (Five test groups with the dose of 20, 50, 100, 500 or 800 mg/(kg·day) and a solvent control group were set).

Data set [11] relates to human lung cancer Calu-3. In words: Tumor-inhibitory effect on Calu-3 transplanted to nude mouse. Format: in vivo, nude mice. Particulars: 100 mg/kg ig twice a day, 3 weeks, p-Toluenesulfonate. As to the method: (§1) The diameters of the transplanted tumors of nude mice were measured with a vernier caliper. The animals were grouped randomly when the tumors grew to a size of 80-100 mm^3. […] The positive control drug MMC (Mitomycin) was intravenously administered once on the first day with a dose of 5 mg/kg. The negative control group were administered with 0.5% CMC-Na (Carboxymethyl Cellulose Sodium) with a dose of 0.2 mL/per mouse. The long axis (a) and the short axis (b) of the tumors were measured twice every week and the nude mice were weighed at the same time. […] RTV=Vt/V0, wherein V0 represents the tumor volume measured at the grouping time of administration, and Vt represents the tumor volume measured each time). The relative tumor proliferation rate T/C (%) was chosen as the index to evaluate the anti-tumor activity, which can be calculated according to the following formula: T/C (%)=(TRTV/CRTV)×100 TRTV: RTV of the treated group; CRTV: RTV of the negative control group The standard for evaluating the effectiveness: […]

For data set [12], the system named is human lung cancer A549. Put plainly: Tumor-inhibitory effect on A549 transplanted to nude mouse. As to conditions: 100 mg/kg ig twice a day, 3 weeks, p-Toluenesulfonate. The data set is classed as in vivo, nude mice. How it is done: as §1

Erb-B2 kinase, sequence (P04626 23-1255): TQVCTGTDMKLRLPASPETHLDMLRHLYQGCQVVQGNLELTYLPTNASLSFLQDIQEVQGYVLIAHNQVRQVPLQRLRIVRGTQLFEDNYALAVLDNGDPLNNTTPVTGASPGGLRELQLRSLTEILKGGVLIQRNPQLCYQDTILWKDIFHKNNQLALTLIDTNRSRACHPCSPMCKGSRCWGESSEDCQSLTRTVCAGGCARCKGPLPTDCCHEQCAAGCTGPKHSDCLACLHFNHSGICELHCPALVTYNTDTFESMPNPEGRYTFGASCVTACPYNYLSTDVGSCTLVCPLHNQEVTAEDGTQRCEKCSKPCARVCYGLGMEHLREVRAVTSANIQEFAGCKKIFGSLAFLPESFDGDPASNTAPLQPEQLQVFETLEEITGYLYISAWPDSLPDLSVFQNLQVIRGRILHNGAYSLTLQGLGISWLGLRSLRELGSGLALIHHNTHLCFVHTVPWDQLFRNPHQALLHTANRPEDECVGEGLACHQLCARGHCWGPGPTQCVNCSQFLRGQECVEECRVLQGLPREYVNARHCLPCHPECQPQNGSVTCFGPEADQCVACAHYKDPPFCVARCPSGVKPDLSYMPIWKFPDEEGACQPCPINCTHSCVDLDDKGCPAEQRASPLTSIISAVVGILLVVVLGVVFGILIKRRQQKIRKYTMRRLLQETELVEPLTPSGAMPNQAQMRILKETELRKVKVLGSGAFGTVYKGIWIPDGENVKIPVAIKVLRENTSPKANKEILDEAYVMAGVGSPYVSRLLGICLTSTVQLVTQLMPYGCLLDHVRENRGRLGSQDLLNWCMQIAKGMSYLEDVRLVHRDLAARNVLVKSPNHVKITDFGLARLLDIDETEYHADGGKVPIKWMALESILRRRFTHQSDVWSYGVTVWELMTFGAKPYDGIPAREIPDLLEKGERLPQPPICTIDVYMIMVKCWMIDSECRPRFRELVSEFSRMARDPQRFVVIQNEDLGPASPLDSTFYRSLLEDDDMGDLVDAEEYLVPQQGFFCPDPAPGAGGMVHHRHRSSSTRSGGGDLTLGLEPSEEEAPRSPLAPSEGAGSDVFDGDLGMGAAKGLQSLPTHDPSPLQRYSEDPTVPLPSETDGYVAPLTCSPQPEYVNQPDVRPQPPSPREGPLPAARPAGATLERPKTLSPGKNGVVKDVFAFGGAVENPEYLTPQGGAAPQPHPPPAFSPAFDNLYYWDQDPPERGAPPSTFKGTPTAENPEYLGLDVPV

Consider `C=CC(=O)Nc1ccc2ncnc(Nc3ccc(OCc4cccc(F)c4)c(Cl)c3)c2c1` [Compound of formula (I), N-{4-[3-chloro-4-(3-fluoro-benzyloxy)phenylamino]-quinazolin-6-yl}-acrylamide], for which the “inhibiting the growth of A431 cells” value in data set [1] is listed as “relatively good effect”. In [2], the “inhibiting the growth of BT-474 cells” value is given as “relatively good effect”. In addition, the “tumor-inhibiting effect on A431 implanted into a nude mouse” value in [3] is given as “significant tumor-inhibiting effect”. Moreover, the “inhibitory activity against Erb-B2 kinase” value in data set [4] was “excellent inhibitory activity”.
Regarding `C=CC(=O)Nc1ccc2ncnc(Nc3ccc(OCc4cccc(F)c4)c(Cl)c3)c2c1.Cc1ccc(S(=O)(=O)O)cc1` [Form A, N-{4-[3-chloro-4-(3-fluoro-benzyloxy)phenylamino]-quinazolin-6-yl}-acrylamide p-Toluenesulfonate], the thermal stability result in [5] is recorded as “excellent”. Moreover, the “Purity (%)” value in data set [5] (detect time day 0) worked out at 98.64%; in [5] (detect time day 10), 98.64%; in data set [5] (detect time day 30), 98.64%; in [6] (detect time 0), 98.64%; in [6] (detect time 10), 98.16%; in [6] (detect time 30), 97.24%. Besides, the “Purity (%)” value is on record as 98.64% in data set [7] (detect time 0), 98.62% in data set [7] (detect time 10) and 98.62% in [7] (detect time 30). Besides, the light stability entry in data set [6] is on record as “good”. For the same compound, the “stability under the environment of high moisture” value in [7] was “very stable”. The “Weight of animals (g) (without tumor)” value in data set [8] (25 mg/kg ig, A431 nude mouse) worked out at 21.58 ± 2.18 g; in data set [8] (50 mg/kg ig, A431 nude mouse), 22.87 ± 3.96 g; in data set [8] (100 mg/kg ig, A431 nude mouse), 22.13 ± 1.83 g. Also, the “Tumor inhibition rate %” value in data set [8] (25 mg/kg ig) amounted to 29.99%; in data set [8] (50 mg/kg ig), 38.67%; in data set [8] (100 mg/kg ig), 43.63%. The “Weight of tumors (g) x ± SD” value in data set [8] (25 mg/kg ig) is listed as 0.79 ± 0.20 g; in [8] (50 mg/kg ig) it was 0.69 ± 0.17 g; in [8] (100 mg/kg ig), 0.64 ± 0.23 g. For the same compound, the “inhibitory effect on the tumor” value in data set [8] (A431 nude mouse, ig, in words) was “significant inhibitory effect”. In data set [9] (SKOV-3 nude mouse, ig once a day, in words), the tumor inhibitory effect result is listed as “significant tumor inhibitory effect”. Moreover, in [10], the food intake entry is on record as “normal”. Besides, in data set [10], the “physical signs, appearance, behaviors, activities or shape of dejecta” value was “no abnormality”. Moreover, the “weight and weight increase of the rats” value in data set [10] is recorded as “basically similar to the solvent control group”.
Consider `C=CC(=O)Nc1ccc2ncnc(Nc3ccc(OCc4cccc(F)c4)c(Cl)c3)c2c1.Cc1ccc(S(=O)(=O)O)cc1` [Form C, N-{4-[3-chloro-4-(3-fluoro-benzyloxy)phenylamino]-quinazolin-6-yl}-acrylamide p-Toluenesulfonate], for which the thermal stability entry in data set [5] is recorded as “good”. For the same compound, the “Purity (%)” value in data set [5] (detect time day 0) stood at 99.03%; in data set [5] (detect time day 10), 97.08%; in data set [5] (detect time day 30), 97.55%; in [6] (detect time 0), 99.03%; in [6] (detect time 10), 98.54%; in [6] (detect time 30), 98.42%. The entries for the “Purity (%)” value in data set [7] (detect time 0), in data set [7] (detect time 10) and in data set [7] (detect time 30) were 99.03%, 98.27% and 98.08%, respectively. For the same compound, the light stability result in [6] was “good”. The “stability under the environment of high moisture” value in [7] is reported as “comparatively stable”. Further, the “relative tumor proliferation rate T/C” value was 23.2% in [9] (SKOV-3, 100 mg/kg ig twice a day, 3 weeks, p-Toluenesulfonate); 39.4% in [11]; 58.7% in data set [12]. Moreover, the tumor inhibitory effects result in [9] (summary in words for SKOV-3, Calu-3 and A549 models, 100 mg/kg ig twice a day) is “significant tumor inhibitory effects”. Further, the food intake result in data set [10] is “normal”. For the same compound, in [10], the “physical signs, appearance, behaviors, activities or shape of dejecta” value is listed as “no abnormality”. The “weight and weight increase of the rats” value in [10] is on record as “basically similar to the solvent control group”.

Source of the values: patent publication US9102629B2, “Polymorphic forms of 4-phenylamine quinazoline derivative, the preparation method and uses thereof” (priority 2008, dated 2015).
